# Measured values published in patent publication US20090062309A1, “Therapeutic compositions for the treatment of cardiovascular diseases and methods for use therefor” (priority 2007, published 2009).
# Where “and” joins values, the source holds several entries; their conditions need not be identical. Equal entries are not always repeated. Entries after “also recorded” stand apart in the source; their conditions may differ.
# Tested on: subjects with CHD having decreased RBC K+ content
# Assay: Single-Blind Trial of Amiloride in Coronary Heart Disease During 2-Year Follow-Up
# Format: in vivo, human
# Description: Subjects were evaluated by clinical (CCS angina Class, dyspnea, and arrhythmia). Other non CHD causes of chest pain, dyspnea, and arrhythmia had been ruled out. Safety control were serial ECG, non-invasive hemodynamics (DynaPulse 200A, CA, USA), Ion Transport Study (plasma and RBC electrolytes, 12-hour urine volume and electrolyte excretion, and plasma and urine creatinine and osmolality), BIA for Body Composition Analysis and estimation of Total Body K^+ (Quantum X, RJL Systems), and Clinical Biochemistry (FPG, Lipids, Uric acid), were measured at 1, 3, 6, 12, 18, 24 months follow-up period.
# After written consent, each patient entered this single-blind trial directed to reverse or improve angina and other symptoms of CHD, as well as the ECG alterations of ischemia, and if possible in long-term assay, on improved LV motion/contractility in the echocardiography studies.
# All cases had: a) Serial ECG for LVH by Cornell or Sokolow-Lyon Criteria (QRS duration times Cornell voltage: [R aVL+ SV3, with 6 mm added in women, >2440 mm×ms], Sokolow-Lyon voltage: [SV1+RV5/V6]> 38 mm; along with LV strain pattern [classical ST-segment depressed, with inverted T-waves], or LVH voltage criteria with mild LV strain pattern (isoelectric, biphasic or non-symmetrical negative T-waves, without ST-segment depression), and ECG criteria for infarction and/or ischemia (Q-waves from previous AMI, decreased R-wave height, non-progressive R-wave voltages in precordial leads, ST-segment elevation […] often referred as injury current, ST-segment depression […] often downsloping from the J point, rectification of the ST segment, and isoelectric, biphasic, negative or inverted T-waves, intraventricular conduction disturbance, and arrhythmias); b) Non-invasive hemodynamic study (DP200M) for cardiac parameters (LV Ejection Time [LVET], LV dP/dT (LV delta pressure-time), Cardiac output and index (CO, Cl), Stroke Volume (SV), Pulse Wave Analysis (PWA) of Central Aortic Blood Pressure [BP], Aortic Systolic (SBP), Diastolic (DBP) and mean (m) BP, Aortic augmentation index; inflection point and reflected wave analysis, Systemic Vascular Resistance and Compliance (SVR/SVC), and Brachial Artery Distensibility (BAD), Brachial Artery Compliance (BAC); c) Ion Transport Studies for RBC (K^+, Na^+) plasma (K^+, Na^+, Cl^−, ICa^2+, Mg^2+), and 12-hours night urinary volume (K^+, Na^+, Cl^−, pH), d) Bio-Impedance Analysis (BIA, Quantum X, RJL Systems, MI, USA) for Total body Potassium, Total body water/Extracellular Water, Fat Mass (FM) and Fat-Free Mass (FFM) and e) Echocardiography was obtained at entry, 6 and 12, 24 months periods.
# The statistical analysis was performed using the Student's t-test and analysis of variance. To reduce the probability of significant differences arising by chance, Bonferroni's correction was applied following analysis of variance. All measurement are presented as the mean±S.D., and differences were considered significant when p<0.05.
compound,measurement,setting,value
"Cl.NC(N)=NC(=O)c1nc(Cl)c(N)nc1N.O.O [Amiloride, 3,5-diamino-6-chloro-N-(diaminomethylene) pyrazinecarboxamide monohydrochloride, dihydrate]","Days for Improvement, Percentage (%)","2-year trial, n=52",86.5%
same,"EGG Alterations: Improved Changes, Number","2-year trial, n=52",23
same,"EGG Alterations: Improved Changes, Percentage (%)","2-year trial, n=52",44.2%
same,"EGG Alterations: Reverted to Normal, Number","2-year trial, n=52",18
same,"EGG Alterations: Reverted to Normal, Percentage (%)","2-year trial, n=52",34.5%
same,"EGG Alterations: Unchanged/Worst, Number","2-year trial, n=52",10
same,"EGG Alterations: Unchanged/Worst, Percentage (%)","2-year trial, n=52",19.2%
same,EGG Alterations: Weeks for Improvement,"2-year trial, n=52",3.4 ± 1.5 Weeks
same,"EGG Alterations: Weeks for Improvement, Percentage (%)","2-year trial, n=52",61%
same,"Echocardiographic Changes: Altered Hypokinesia, Number","2-year trial, n=52",34
same,"Echocardiographic Changes: Altered Hypokinesia, Percentage (%)","2-year trial, n=52",65.5%
same,"Echocardiographic Changes: Normal Contractility, Number","2-year trial, n=52",18
same,"Echocardiographic Changes: Normal Contractility, Percentage (%)","2-year trial, n=52",34.5%
same,"Echocardiographic Changes: Reversed Hypokinesia, Number","2-year trial, n=52",27
same,"Echocardiographic Changes: Reversed Hypokinesia, Percentage (%)","2-year trial, n=52",52%
same,"Echocardiographic Changes: Unchanged Hypokinesia, Number","2-year trial, n=52",7
same,"Echocardiographic Changes: Unchanged Hypokinesia, Percentage (%)","2-year trial, n=52",13.5%
same,"Free of Angina (1-2 years), Number","2-year trial, n=52",37
same,"Free of Angina (1-2 years), Percentage (%)","2-year trial, n=52",71.2%
same,"New CVD Events: ACS, Number","2-year trial, n=52",7
same,"New CVD Events: ACS, Percentage (%)","2-year trial, n=52",13.5%
same,"New CVD Events: AMI/Stroke/Death, Number","2-year trial, n=52",0
same,"New CVD Events: AMI/Stroke/Death, Percentage (%)","2-year trial, n=52",0%
same,"New CVD Events: None, Number","2-year trial, n=52",41
same,"New CVD Events: None, Percentage (%)","2-year trial, n=52",79%
same,"New CVD Events: Ventricular Arrhythmias, Number","2-year trial, n=52",5
same,"New CVD Events: Ventricular Arrhythmias, Percentage (%)","2-year trial, n=52",9.6%
same,"Reversion of Angina, Number","2-year trial, n=52",43
same,"Reversion of Angina, Percentage (%)","2-year trial, n=52",82.7%
same,Subjects with Angina: Days for Improvement,"2-year trial, n=52, Amiloride 5 to 10 mg/day",6.2 ± 3.5 days
same,"ECG change, single subject FIG. 14A","Diabetic, inferior AMI, during admission in the Amiloride trial",improvement in the subject's antero-lateral ischemia
same,"ECG after withdrawal, single subject FIG. 14B","Diabetic, two months after withdrawal of Amiloride treatment",ECG alterations marked with arrows indicative of acute coronary syndrome and ventricular arrhythmias
same,"ECG change, single subject FIG. 12B","Person, 1-year post infarction, 5 months Amiloride, calcium and statins","significant ECG improvement of ST-segment, and T-waves (V1-V6)"
same,"ECG, single subject FIG. 12C","Person, 18 months post AMI, Amiloride, calcium and statins, no other medication",essentially a normal ECG trace
same,"Duke Treadmill Scores, single subject FIG. 12C","Person, 18 months post AMI, Amiloride, calcium and statins, monohydrochloride, dihydrate",6.23 and 5.49
same,"ECG change, single subject FIG. 13B","Person, diabetes, angina, 5-months of Amiloride and statins",improvement of ischemic changes
same,"DT Score, single subject FIG. 13B","Person, 5-months of Amiloride and statins, score −3 before",2.3
same,"ECG after withdrawal, single subject FIG. 13C","Person, after 6-months without Amiloride, optimal angina and diabetes medications",recurrence of ECG alterations
same,"ECG after re-start, single subject FIG. 13C","Person, three months after Amiloride was reinitiated",normal without ischemic changes
same,"ECG change, single subject FIG. 11C","person, infarction, angina, heart failure, 2-months Amiloride (5 mg) and calcium plus other medications",rapid reversion of ST-T alterations (V2-V6)
same,"angina and heart failure symptoms, single subject FIG. 11C","person, 2-months Amiloride (5 mg) and calcium, monohydrochloride, dihydrate",free of angina or symptoms of heart failure; also recorded: free of angina and symptoms of heart failure
same,"Duke Treadmill Score, single subject FIG. 11C","person, 2-months Amiloride (5 mg) and calcium, score −3 before entering trial",+4.3
